Assays:
[1] = Acute toxicity in the mouse (LD50, Probits method); settings: in vivo
Procedure: (§1) The study has been performed using whitish Swiss mice weighing about 20 g and Wistar rats, in the phase of weight increase, weighing about 150 g, of both sexes. The product has been administered to fasted animals (2 hours for mice and 18 hours for rats) by gastric tube (oral route) or intraperitoneal injection. Sulfipyrazone has been used as reference drug.
(§2) For the statistic calculation of LD50 and of the respective confidence limits for p=0.05, the Probits method was followed (Finney D. J.--Probit analysis-Cambridge Univ. Press, London and New York, 1952), taking into account the death rates in the 8 days following the treatments.

[2] = Acute toxicity in the rat (LD50, Probits method); settings: in vivo
Procedure: as §1, §2

[3] = system: cutaneous temperature of the paw; assay: Vasodilating action in the mouse (cutaneous temperature of the paw); assay type: in vivo, Swiss male whitish mice; settings: for mean variation of the cutaneous temperature in the 3h following the treatment: in °C (unit assumed)
Procedure: Swiss male whitish mice weighing about 20 g have been used. The cutaneous temperature of the paw has been measured, in conditioned room by means of a suitable thermometric equipment, (a) for three times, at 30 minutes intervals, before treatment (basal temperature), and (b) every 30 minutes in the three hours following the drugs treatment.

[4] = system: thrombocytopenia induced by Arthus reaction; assay: Inhibition of the thrombocytopenia induced by Arthus reaction in the guinea-pig; assay type: in vivo, guinea pigs; settings: guinea pig after antigenic reaction, 100 mg/kg os; for % inhibition: thrombocytopenia
Excerpt: The method described by White and Butler (Thromb. Diath. Haemorr., 34, 533, 1975) has been used.

[5] = system: platelet aggregation induced by adrenaline; assay: "Ex vivo" platelet antiaggregating action; assay type: in vivo, rabbits; settings: rabbit PRP, 35 mcg/ml adrenaline
Excerpt: By this test, the effect of VQG 582, acetylsalicylic acid or sulfinpyrazone pretreatment of rabbits on the platelet aggregation induced on the PRP of these animals by 35 mcg/ml adrenaline, has been valued.

[6] = Hypocholesterolemic action in rats fed with Nath's diet; assay type: in vivo; settings: 200 mg/kg per os, 40 days
Procedure: 24 Hours after the last administration, the survived animals have been sacrificed and the dosage of total serum cholesterol, serum triglycerides, serum phospholipids and serum free fatty acids has been performed according to the methods described by Abell et al. (J. Biol. Chem., 195, 375, 1952), VAN HANDALL et al. (J. Lab. Clin. Med., 50, 152, 1957), MORRISON (Anal. Biochem., 7, 218, 1964), DOLE AND MEINERTZ (J. Biol. Chem., 235, 2595, 1960).
The livers were withdrawn and weighed, homogenized and extracted in soxhlet. The extracted lipids, evaporated, have been weighed and expresses as % of fresh organ.

[7] = rat, in vivo
[8] = Pharmacokinetics in the rat by the oral route; settings: equimolar doses, compared with VQG 582
[9] = ip, intraperitoneal route, female
[10] = ip, intraperitoneal route, male

| Structure (SMILES) | LD50 at 192 h [1, 9] [mg/kg] | LD50 at 192 h [1, 10] [mg/kg] | LD50 at 192 h ([1]; po, female) [mg/kg] | LD50 at 192 h ([1]; po, male) [mg/kg] | LD50 at 192 h [2, 9] [mg/kg] | LD50 at 192 h [2, 10] [mg/kg] | LD50 at 192 h ([2]; po, female) [mg/kg] | LD50 at 192 h ([2]; po, male) [mg/kg] | mean variation of the cutaneous temperature in the 3h following the treatment ([3]; 100 mg/kg os) | N. platelets ± S.E. [4] | % inhibition [4] [%] | inhibition % ([5]; 40 mg/kg os) [%] | inhibition % ([5]; 80 mg/kg os) [%] | inhibition % ([5]; 120 mg/kg os) [%] | % dead animals [6] [%] | serum cholesterol [6] [mg/100 ml] | serum free fatty acids [6] [mg/100 ml] | serum phospholipids [6] [mg/100 ml] | also measured |
| --- | --- | --- | --- | --- | --- | --- | --- | --- | --- | --- | --- | --- | --- | --- | --- | --- | --- | --- | --- |
| O=C1C(CC[S+]([O-])c2ccccc2)C(=O)N(c2ccccc2)N1c1ccccc1 (centres unmarked) [sulfinpyrazone, 1,2-diphenyl-4-[2-(phenylsulfinyl)ethyl]-pyrazoline-3,5-dione] | 159 | 163 | 335 | 368 | 157 | 149 | 390 | 348 | +0.05 | 204.3 10^3 /mm^3 | 63.1 | 5 | 30 | 70 | – | – | – | – | – |
| O=C(OCC1(CC[S+]([O-])c2ccccc2)C(=O)N(c2ccccc2)N(c2ccccc2)C1=O)c1cccnc1 (centres unmarked) [VQG 582, 1,2-diphenyl-4-[2-(phenylsulfinyl)-ethyl]-4-(nicotinoyloxymethyl)-pyrazolidine-3,5-dione] | 3250 | 3130 | > 4000 | > 4000 | 2320 | 2690 | > 4000 | > 4000 | +0.60 | 218.5 10^3 /mm^3 | 70.2 | 15 | 70 | 85 | 10 | 294.1 | 0.31 | 157.1 | max. effect time ([3]; 100 mg/kg os): 60 min; serum triglycerides [6]: 113.8 mg/100 ml; liver lipids % ([6]; % of fresh organ): 16.0%; pharmacological action after oral administration [7]: pharmacological action clearly delayed; blood concentrations expressed as sulfinpyrazone ([7]; po): prolongation of the blood concentrations expressed as sulfinpyrazone; metabolism ([7]; po): metabolized via an intermediate step, respectively to nicotinic acid and sulfinpyrazone; presence of unchanged compound in the plasma ([7]; po): found unchanged in the plasma 30 minutes to 1 hour after the treatment |
| CC(=O)Oc1ccccc1C(=O)O [ASA, acetylsalicylic acid] | – | – | – | – | – | – | – | – | – | – | – | – | – | – | – | – | – | – | inhibition % ([5]; 50 mg/kg os): 30%; inhibition % ([5]; 75 mg/kg os): 70%; inhibition % ([5]; 100 mg/kg os): 100% |
| O=C(O)c1cccnc1 [nicotinic acid] | – | – | – | – | – | – | – | – | – | – | – | – | – | – | 10 | 324.3 | 0.39 | 161.7 | max. effect time ([3]; 50 mg/kg os): 30 min; mean variation of the cutaneous temperature in the 3h following the treatment ([3]; 50 mg/kg os): +0.75; AUC ([7]; po): AUC superimposable to VQG 582; absorption [8]: faster absorption |

Source: US4542141A, “Compound having vasodilating, antiaggregating and hypocholesterolemic activities, process for the preparation thereof and pharmaceutical compositions therefrom” (Edmond Pharma s.r.l., priority 1982, dated 1985)
